In patent US9498548B2, “Method of using oxidative reductive potential water solution in dental applications” (priority 2005, dated 2016):
Where two headings read alike, the source gives them in different places. One block for each molecule: values may come before it.

Key:
[1] = Root canal treatment study (irrigation and oral rinses); type: in vivo, patients; settings: ORP water solution 109 pts; 2.5% SH 129 pts
Source text: Acute root canal was defined as an X-ray image showing a periapical lesion in addition to negative vitality and positive percussion clinical tests. Retrospective analysis of paired-cases presenting similar root canal infections between 2002 and 2003 at the same Institution was undertaken for the control group (the “SH” group) (see FIGS. 7A-B).
During the process the ducts were isolated to avoid contamination. The cavity was opened and the root drilled. ORP water solution flush started with the drilling process instead of using water or saline solution. Instrumentation was conducted according to the crown down technique using rotatory NiTi instruments. Instrumentation was done according to the extension of the duct as measured by the X ray. Duct irrigation was conducted with the ORP water solution after using each instrument. […] The duct was dried out with dental paper and occlusion done by lateral condensation with calcium hydroxide and epoxy resin. […] After 30 days, oral rinse once daily indefinitely was recommended.
A standard art-known treatment procedure with sodium hypochlorite (SH) was conducted for root canal treatment in control patients. Particular care was paid to avoid infiltration of the solution to the periapical region during the manipulation. All patients in the control group received ampicilin (500 mg tid) or cephalexin (500 mg bid) for 7 days as well as anti-inflammatory drugs (naproxen 500 mg bid) as necessary.
The demographic characteristics were similar for both groups (FIGS. 7 A & B).

[2] = tested on: human diploid fibroblasts (HDFs); experiment: Cell viability, apoptosis and necrosis by flow cytometry; type: cell-based; settings: 880 mM
Experimental: HP is known to be toxic to eukaryotic cells, increasing apoptosis and necrosis and reducing cellular viability. […] HDF cultures were obtained from three different foreskins, which were pooled and cryopreserved together for the purpose of this study. Only diploid cells were used for all experiments. […] Simultaneous analyses of these parameters were performed in the same cell populations by flow cytometry using: […] FIG. 4B) Annexin V-FITC and FIG. 4C) Propidium iodide. FIGS. 8A-8C disclose percentage values expressed as mean±SD (n=3).

HDFs = settings: human, 1 month, 5 µM
[3] = tested on: murine polychromatic erythrocytes; settings: for PCE/NCE ratio: bone marrow, cyclophosphamide 8 mg/mL, 12.5 ml/kg i.p. day 2
Experimental: The mammalian in vivo micronucleus test is used for the identification of substances which cause damage to chromosomes or the mitotic apparatus of murine polychromatic erythrocytes. This damage results in the formation of “micronuclei,” intracellular structures containing lagging chromosome fragments or isolated whole chromosomes. […] The positive control mice received a single intraperitoneal injection of cyclophosphamide (8 mg/mL, 12.5 ml/kg) on day 2. All mice were observed immediately after injection for any adverse reactions. […] On day 3, all mice were weighed and terminated.
The femurs were excised from the terminated mice, the bone marrow was extracted, and duplicate smear preparations were performed for each mouse. The bone marrow slides for each animal were read at 40× magnification. The ratio of polychromatic erythrocytes (PCE) to normochromatic erythrocytes (NCE), an index of bone marrow toxicity, was determined for each mouse by counting a total of at least 200 erythrocytes. Then a minimum of 2000 scoreable PCE per mouse were evaluated for the incidence of micronucleated polychromatic erythrocytes. Statistical analysis of the data were done using the Mann and Whitney test (at 5% risk threshold) from a statistical software package (Statview 5.0, SAS Institute Inc., USA).

Compound: [Na+].[O-]Cl [2.5% SH, sodium hypochlorite]
- dental losses [1]: Dental losses only occurred in the SH control group
- patients with an acute local reaction after root canal treatment [1]: 16 patients
- total number of affected teeth [1]: 23

- cells with increased SA-β-Gal expression (HDFs): 86%
Compound: OO [HP, hydrogen peroxide]
- Cell viability ([2]; 5 min): 55%
- Cell viability ([2]; 30 min): 5%

Compound: O=P1(N(CCCl)CCCl)NCCCO1 (stereo not drawn) [cyclophosphamide]
- PCE/NCE ratio ([3]; females): 0.73
- PCE/NCE ratio ([3]; males): 0.77
- number of polychromatic erythrocytes bearing micronuclei ([3]; males, minimum of 2000 PCE per mouse evaluated): 11.0
